Reference: patent US8252775B2, “Method of treating multiple sclerosis with phosphocholine containing lipids” (priority 2005, dated 2012)
Values joined by “and” are separate entries in the source; they are usually repeats but may differ in a detail not shown here. Equal values may be shown once. “Also recorded” adds a separate entry of the source.

Experiments:
[1] = test system: splenocytes; experiment: 3H-thymidine proliferation of PLP139-151-stimulated splenocytes from lipid-treated EAE mice; assay type: in vivo; settings: PLP139-151-stimulated splenocytes from treated EAE mice
Protocol: (§1) FIG. 5a-5b. PGPC treatment lowers IFNgamma secretion and early activation marker expression in response to the encephalitogenic antigen. (a) CD69 expression on CD4^+ and CD8^+PI^− lymphocytes (live cells) after 4 days in culture with 10 μg/ml PLP139-151. The ratio of CD69^+CD4^+:CD69^−CD4^+ is 14.2%:39.6% for lymph node cells from vehicle-treated mice, 9.6%:43.8% for cells from sphingomyelin-treated mice, and 7.96%:55.2% for cells from PGPC-treated mice. […] (b) Proliferation and cytokine assays of lymph node cells and splenocytes isolated from vehicle, PGPC, and sphingomyelin-treated mice in FIG. 4c.
Mice were sacrificed 48 days after disease induction and their spleens and lymph nodes (LN) harvested for analyses of expression of activation markers on subsets of T cells, measurements of secreted cytokines, and levels of T cell proliferation. Isolated cells were restimulated with the encephalitogenic antigen PLP139-151 and analyzed by flow cytometry. Dead cells (identified based on staining with propidium iodide) were eliminated from the analyses, and cells double stained with CD4-FITC or CD8-FITC and CD69-PE are presented (FIG. 5a). […]
Proliferation and cytokine assays. […] To assess proliferation, 1 μCi of ^3H-thymidine was added to each well at 48 hours for the final 18 hours of culture, and radioactivity incorporation quantified using a Betaplate scintillation counter. […]

[2] = test system: CD69 expression on CD4+ T cells; experiment: Flow cytometry of CD69 on restimulated lymph node cells from lipid-treated EAE mice; assay type: in vivo; settings: for expression of early activation marker CD69 on CD4+ T cells: cells from treated EAE mice restimulated with PLP139-151, vs vehicle; for CD4+CD69+ cells / CD4+CD69− cells: lymph node cells of treated EAE mice, 4 days culture with 10 μg/ml PLP139-151; for CD4+CD69+ cells: vehicle 14.2%; for CD4+CD69− cells: vehicle 39.6%
Protocol: as §1
(§2) Mice were sacrificed 48 days after disease induction and their spleens and lymph nodes (LN) harvested for analyses of expression of activation markers on subsets of T cells, measurements of secreted cytokines, and levels of T cell proliferation. Isolated cells were restimulated with the encephalitogenic antigen PLP139-151 and analyzed by flow cytometry. Dead cells (identified based on staining with propidium iodide) were eliminated from the analyses, and cells double stained with CD4-FITC or CD8-FITC and CD69-PE are presented (FIG. 5a). […] Specifically, the cells isolated from vehicle treated mice were 39.6% CD4^+CD69^− and 14.2% CD4^+CD69^+, whereas cells from PGPC treated mice were 55.2% CD4^+CD69^− and 7.96% CD4^+CD69^+.
Flow cytometric analysis. Cells were stained and run on a FACScan flow cytometer (BD Biosciences) using CellQuest software (BD Immunocytometry Systems). Results were analyzed using FlowJo software version 6.3.2 (Tree Star, Inc.). The following antibody conjugates were used: PE anti-mouse CD3, clone 145-2C11; FITC anti-mouse CD4, clone GK1.5; PE anti-mouse CD4, clone GK1.5; FITC anti-mouse CD8, clone 53-6.7; PE-anti-mouse CD69, clone H1.2F3. All anti-CD3, CD4, and CD8 antibodies were purchased from BD Pharmingen. Anti-mouse CD69 was purchased from eBioscience. 7AAD staining was performed using the reagents from the Annexin V-PE Apoptosis Detection Kit I (BD Pharmingen) using the manufacturer's recommended staining protocol. CFSE staining was performed on freshly isolated lymph node cells by mixing equal volumes of 37° C. pre-warmed cells in PBS containing 5% FBS with 10 μM solution of pre-warmed CFSE probe (CellTrace™ CFSE Cell Proliferation Kit) as described in the manufacturer's alternate method for labelling cells in solution (Molecular Probes).

[3] = test system: IFNγ; experiment: IFNγ ELISA on PLP139-151-stimulated cells from lipid-treated EAE mice; assay type: in vivo; settings: vs controls; for IFNγ secretion by lymph node cells: LN cells from treated EAE mice stimulated with PLP139-151
Protocol: as §1, §2
(§3) Proliferation and cytokine assays. We sacrificed mice and harvested their lymph node cells and splenocytes. 2.5×10^6 cells/ml were stimulated in vitro with 10 μg/ml PLP139-151, 1 μg/ml ConA, or media alone. Cells were cultured in RPMI 1640 with 10% fetal bovine serum, supplemented with L-glutamine (2 mM), sodium pyruvate (1 mM), non-essential amino acids (0.1 mM), penicillin (100 U/ml), streptomycin (0.1 mg/ml), and 2-mercaptoethanol (50 μM). To assess proliferation, 1 μCi of ^3H-thymidine was added to each well at 48 hours for the final 18 hours of culture, and radioactivity incorporation quantified using a Betaplate scintillation counter. Cytokine assays were performed on culture supernatants after 66 hours of culture using the BD OptEIA™ Mouse IFNγ ELISA kit (BD Biosciences). Results are shown as mean of triplicates+s.e.m.

[4] = test system: TCR Tg LN cells; experiment: CFSE T cell proliferation assay, MBPAc1-11-stimulated TCR Tg LN cells; assay type: cell-based, mice; settings: 75 μM lipid, 5 μg/ml MBPAc1-11, 48 hours, CD3+ and CD4+ cells; vs media alone
[5] = test system: EAE; experiment: Prevention of EAE by co-delivery of lipid with PLP139-151/CFA; assay type: in vivo; settings: SJL/J mice; 6 μg lipid with 100 μg PLP139-151 in CFA s.c. day 0, 6 μg i.p. days 4 and 7; vs vehicle
[6] = test system: EAE; experiment: Treatment of established EAE with intravenous lipid; assay type: in vivo, mice; settings: 100 μg lipid i.v. at onset of paralysis and days 3, 6, 12, 18; five injections; vs vehicle
[7] = test system: MBPAc1-11-specific T cells; experiment: 3H-thymidine proliferation of MBPAc1-11-stimulated LN cells with lipid in vitro; assay type: cell-based, mice
Protocol: (§4) FIG. 6a-6d. PGPC slows the rate of T cell proliferation. […] The 0 hour time point is shown as the high peak with the black dashed line. (c) 7AAD stained cells from TCR Tg mice^33, 48 hours after incubation with 5 μg/ml MBPAc1-11 with or without lipid. […] (d) LN cells stimulated with 1 μg/ml MBPAC1-11, 30 μg/ml PGPC, with or without 50 U/ml IL-2 are depicted.
(§5) To determine if the PGPC-mediated reduction in the proliferation rate of MBPAC1-11 stimulated T cells was due to cell death, we examined 7AAD uptake to identify dead cells at the 48 hour time point (FIG. 6c). […] This effect could be reversed by the addition of 50 U/ml IL-2 (p=0.024, Student's t test) (FIG. 6d), consistent with IL-2 mediated rescue of the T cells from an anergic state.
as §3, with “Cytokine assays were performed on culture supernatants after 66 hours of culture using the BD OptEIA™ Mouse IFNγ ELISA kit (BD Biosciences). Results are shown as mean of triplicates+s.e.m.” left out

[8] = test system: TCR Tg LN cells; experiment: 7AAD uptake (cell death) in MBPAc1-11-stimulated TCR Tg cells; assay type: cell-based; settings: 75 μM lipid, 5 μg/ml MBPAc1-11, 48 hours
Protocol: as §4, §5
Flow cytometric analysis. Cells were stained and run on a FACScan flow cytometer (BD Biosciences) using CellQuest software (BD Immunocytometry Systems). Results were analyzed using FlowJo software version 6.3.2 (Tree Star, Inc.). The following antibody conjugates were used: PE anti-mouse CD3, clone 145-2C11; FITC anti-mouse CD4, clone GK1.5; PE anti-mouse CD4, clone GK1.5; FITC anti-mouse CD8, clone 53-6.7; PE-anti-mouse CD69, clone H1.2F3. All anti-CD3, CD4, and CD8 antibodies were purchased from BD Pharmingen. Anti-mouse CD69 was purchased from eBioscience. […]

[9] = test system: TNFα; experiment: TNFα production by PLP139-151-specific T cells from sulfatide co-immunized mice; assay type: in vivo; settings: T cells from mice immunized with PLP139-151+sulfatide
[10] = test system: IFNγ; experiment: IFNγ production by PLP139-151-specific T cells from sulfatide co-immunized mice; assay type: in vivo; settings: T cells from mice immunized with PLP139-151+sulfatide
Protocol: (§6) FIG. 9. […] (a) Co-immunization of SJL mice with sulfatide (6 μg/mouse) and PLP139-151 (100 μg/mouse) emulsified in CFA (▪ sulfatide n=10, ▪ vehicle control n=10). An additional immunization of sulfatide (6 μg/mouse) or vehicle was given i.p. on d4 and d7 post-immunization. Each point represents the mean+s.e.m. (*p<0.05; Student's t test). […] The heatmap and dendrograms represent the SAM and hierarchical cluster analysis of lipid array results. (c) Modulation of EAE disease course after i.v. injection of O4 anti-sulfatide antibody versus IgM isotype control (▪ O4 n=5, ▪ IgM control n=5). Antibody was given on days 14, 17, and 19 post-immunization.
(§7) Further, the exacerbation of mouse EAE was associated with increased lymphocyte production of pro-inflammatory cytokines. Thus, characterization of the effects of candidate lipids in the mouse EAE model for MS (EAE), both with regard to their effects on disease severity as well as the production of pro-inflammatory cytokines by autoreactive lymphocytes can be used to identify lipids likely to exacerbated MS.
Proliferation and cytokine assays. We sacrificed mice and harvested their lymph node cells and splenocytes. […] To assess proliferation, 1 μCi of ^3H-thymidine was added to each well at 48 hours for the final 18 hours of culture, and radioactivity incorporation quantified using a Betaplate scintillation counter. […]

[11] = test system: anti-lipid antibodies; experiment: Lipid array analysis of serum from mice co-immunized with PLP139-151 plus sulfatide; assay type: in vivo; settings: SJL mice co-immunized with PLP139-151 plus sulfatide
Protocol: as §6
Probing lipid arrays. Arrays were blocked overnight in 4° C. with 1% fatty acid free bovine serum albumin (BSA; Sigma) in phosphate buffered saline (PBS; Gibco BRL). Arrays were then probed with 1/10 dilutions of CSF, or 1/200 dilutions of sera for 2 hours at 4° C. After washing with blocking solution, a secondary antibody (anti-human IgG+IgM, Jackson Immunoresearch; anti-human IgG, Jackson Immunoresearch; anti-rabbit IgG, Amersham; or anti-mouse IgG, Amersham) conjugated to horseradish peroxidase (HRP) was added in blocking solution, and bound secondary antibodies visualized using chemiluminescence (ECL Plus, Amersham) and autoradiography. […]

[12] = test system: EAE; experiment: Co-immunization with sulfatide plus PLP139-151, EAE disease course; assay type: in vivo; settings: SJL mice; sulfatide 6 μg/mouse with PLP139-151 in CFA day 0, i.p. d4 and d7; vs vehicle
Protocol: as §6, §7
EAE induction and lipid co-immunization. […] Clinical disease was monitored daily using the following scoring system: 0, no disease; 1, limp tail; 2, hindlimb weakness; 3, hindlimb paralysis; 4, hindlimb and forelimb paralysis; 5, death. […]

[13] = test system: IL-4; experiment: IL-4 production by PLP139-151-specific T cells from sulfatide co-immunized mice; assay type: in vivo; settings: T cells from mice immunized with PLP139-151+sulfatide
Protocol: as §6, §7

[14] = test system: IL-12; experiment: IL-12 production by lymphocytes from sulfatide-treated mice; assay type: in vivo; settings: lymphocytes from sulfatide-treated mice (sulfatide+PLP139-151)
Protocol: as §6

Row | Molecule | 3H-thymidine incorporation (proliferation) of splenocytes [1] | expression of early activation marker CD69 on CD4+ T cells [2] | CD4+CD69+ cells [2] | CD4+CD69− cells [2] | IFNγ secretion by lymph node cells [3] | IFNγ secretion by lymph node cells ([3]; listed as PCPG) | IFNγ secretion by splenocytes ([3]; splenocytes from treated EAE mice stimulated with PLP139-151) | T cell proliferation by CFSE staining [4] | severity of EAE (prevention) [5] | severity of paralysis in established EAE [6] | effect of IL-2 on PGPC-mediated reduction of proliferation ([7]; 1 μg/ml MBPAc1-11, 30 μg/ml PGPC plus 50 U/ml IL-2) | MBPAc1-11-specific T cell proliferation (3H-thymidine incorporation) ([7]; LN cells, 1 μg/ml MBPAc1-11, 30 μg/ml PGPC) | cell death by 7AAD uptake [8] | TNFα production in response to PLP139-151 [9] | IFNγ production in response to PLP139-151 [10] | anti-lipid antibody reactivities in serum [11] | EAE disease course after co-immunization [12] | IL-4 production in response to PLP139-151 [13] | IL-12 production [14]
1 | CCCCCCCCCCCCCCCC(=O)OC[C@H](COP(=O)([O-])OCC[N+](C)(C)C)OC(=O)CCCC(=O)O [PGPC, 1-palmitoyl-2-glutaroyl-sn-glycero-3-phosphocholine] | reduced; also recorded: slightly lower proliferation | marked reduction in the expression of the early activation marker CD69 | 7.96% | 55.2% | secreted less IFNgamma; also recorded: secreted lower levels of IFNγ | decreased IFNγ levels | secreted less IFNgamma; also recorded: secreted lower levels of IFNγ | slowed T cell proliferation; also recorded: reduces T cell proliferation rates; also recorded: reduced cell divisions | statistically reduced the severity of EAE; also recorded: ameliorates EAE | reduced the severity of paralysis; also recorded: treats ongoing disease | IL-2 reversed this effect | statistically significant reductions in MBPAc1-11-specific T cell proliferation; also recorded: reduced cell proliferation | not due to cell death; also recorded: not inducing cell death | – | – | – | – | – | –
2 | sphingomyelin | – | intermediate level of CD69 expression | 9.61% and 9.6% | 43.8% | decreased IFNγ levels | – | – | mirrored that of the control; also recorded: line parallels gray shaded area | statistically reduced the severity of EAE; also recorded: ameliorates EAE | only PGPC treats ongoing disease | – | – | – | – | – | – | – | – | –
3 | sulfatide | – | – | – | – | – | – | – | – | – | – | – | – | – | increased amounts | increased amounts; also recorded: increased levels | increased anti-sulfatide and other anti-lipid antibody reactivities; also recorded: increased anti-lipid antibodies | exacerbated murine MS; also recorded: more severe EAE disease course | less and lower levels | increased levels
